Data on two compounds can be found in US20060172964A1, “Methods for reducing amyloid beta levels” (priority 2005, published 2006).

Holding throughout (format): cell-based, human
For data set [1], the system named is APP-FL, APP-C99 and APP-C83. The data set can be described thus: Western blot analysis of APP processing in H4-APP-FL cells. Particulars: for protein levels of APP-FL / increase in the ratio of APP-C99 to APP-FL / increase in the ratio of APP-C83 to APP-FL: siRNA 48 hours, DAPT 250 nM. How it is done: (§1) We employed naïve H4 human neuroglioma (H4) cells and H4 cells stably-transfected to express either the APP-FL, or APP-C99. Peptide APP-C99 is the product of β-secretase, which, therefore, contains α- and γ-, but not β-cleavage sites. This cell line provides a valid system to assess whether any effects on APP processing is dependent on γ-secretase-mediated APP processing and independent of β-secretase-mediated APP processing. All cell lines were cultured in DMEM (high glucose) containing 9% heat-inactivated fetal calf serum, 100 units/ml penicillin, 100 μg/ml streptomycin, and 2 mM L-glutamine. Stably transfected H4 cells were additionally supplemented with 200 μg/ml G418.
Small interfering RNA (siRNA) duplexes were designed and obtained from Dharmacon Research, Inc. (Lafayette, CO 80026) against human APBA1, the gene encoding X11α (5′-GGATGCTCAGCTGATTGCA-3′; SEQ ID NO:2), APBA2, the gene encoding X11β (5′-GGTGAAGCTCAACATTGTC-3′; SEQ ID NO:3). Scrambled siRNA (5′-[…]-3α; SEQ ID NO:4) (29) was used as the control siRNA. siRNAs were transfected into cells by using electroporation (AMAXA, Gaithersburg, Md.). We mixed 1 million cells, 100 μl AMAXA electroporation transfection solution and 10 μl 20 μM siRNA together, then we employed C-9 program in the AMAXA electroporation device for the cell transfection. The transfected cells then were placed in one of the six-well plate containing 1.5 ml cell culture media. The cells were harvested 48 hours after siRNA treatments. DAPT (250 nM, 18 hours treatment time), a γ-secretase inhibitor, was employed in the experiments as a positive control.
(§2) Cell pellets were detergent-extracted on ice using immunoprecipitation buffer (10 mM Tris-HCl, pH 7.4, 150 mM NaCl, 2 mM EDTA, 0.5% Nonidet P-40) plus protease inhibitors (1 μg/ml aprotinin, 1 μg/ml leupeptin, 1 μg/ml pepstatin A). The lysates were collected, centrifuged at 12,000 rpm for 10 min, and quantified for total proteins by the BCA protein assay kit (Pierce, Rockford, Ill.).
Western blot analysis was performed as described by Xie et al. (30). Briefly, 40 μg of total protein of each sample was subjected to SDS-polyacrylamide gel electrophoresis using 4-20% gradient Tris/glycine gels under reducing conditions (Invitrogen, Carlsbad, Calif.). Next, proteins were transferred to a polyvinylidene difluoride membrane (Bio-Rad, Hercules, Calif.) using a semi-dry electrotransfer system (Amersham Biosciences, San Francisco, Calif.). Nonspecific proteins were blocked using 5% non-fat dry milk in TBST for 1.5 h. Blots were then incubated with a primary antibody, followed by a secondary antibody (horseradish peroxidase-conjugated anti-rabbit antibody 1:10,000; Pierce, Rockford, Ill.). Blots were washed with 1× TBST for 30 min between steps. Antibody H-265 (1:200, Santa Cruz Biotechnology, Santa Cruz, Calif.) was used to recognize X11α (105 kDa), antibody N-20 (1:100, Santa Cruz Biotechnology, Santa Cruz, Calif.) was used to detect X11β (135 kDa). Antibody A8717 (1:1,000, Sigma, St. Louis, Mo.) was used to visualize APP-FL (110 kDa), […] in the Western blot analysis. The intensity of signals was analyzed using an image program (NIH Image 1.62). We quantified the Western blots as follows. We used the levels of β-actin to normalize the levels of X11α, X11β, APP-FL and APP-CTF (i.e., determining the ratio of X11α amount to β-actin amount) to control for loading differences in total protein amounts. We present the changes in the protein levels of X11α, X11β, APP-FL, APP-C99 and APP-C83 in the cells treated with APBA1 or APBA2 siRNA as the percentage of those in the cells treated with control siRNA.
We next assessed the effects of RNAi-mediated silencing of APBA1 on APP processing in H4-APP-FL cells by measuring protein levels of APP-FL, APP-C99 and APP-C83 following APBA1 siRNA treatment. […]
On the technique in general: A western blot detects proteins with antibodies after separation by electrophoresis.

The test system of data set [2] is Aβ40. The data set can be described thus: Sandwich ELISA of secreted Aβ in conditioned media of H4-APP-FL cells. How it is done: as §1
Small interfering RNA (siRNA) duplexes were designed and obtained from Dharmacon Research, Inc. (Lafayette, CO 80026) against human APBA1, the gene encoding X11α (5′-GGATGCTCAGCTGATTGCA-3′; SEQ ID NO:2), APBA2, the gene encoding X11β (5′-GGTGAAGCTCAACATTGTC-3′; SEQ ID NO:3). Scrambled siRNA (5′-[…]-3α; SEQ ID NO:4) (29) was used as the control siRNA. siRNAs were transfected into cells by using electroporation (AMAXA, Gaithersburg, Md.). […]
(§3) Following the treatment with saline, electroporation, control siRNA, APBA1 siRNA or APBA2 siRNA, conditioned media was collected, and secreted Aβ was measured by a Sandwich ELISA assay as described by Xie et al. (30). […] Plates were then developed with TMB reagent and well absorbance measured at 450 nm. Aβ levels in test samples were determined by comparison with signal from unconditioned media spiked with known quantities of Aβ40 and Aβ42.
Next, we measured Aβ levels in the conditioned media, 48 hours after treatment with control siRNA, APBA1 siRNA or γ-secretase inhibitor DAPT. Since Aβ42 was too low to be detected in many samples, we only present the changes in Aβ40 production from these experiments.
Next, we measured Aβ levels in the conditioned media 48 hours following treatments with control siRNA, APBA2 siRNA or γ-secretase inhibitor DAPT.
(In general: ELISA stands for enzyme-linked immunosorbent assay.)

Data set [3] deals with APP-FL, APP-C99 and APP-C83. The data set can be described thus: Western blot analysis of APP processing in H4-APP-C99 cells. Conditions: data not shown. How it is done: as §1, with “G418. […]” for “G418.”
as §2
Western blot analysis was performed as described by Xie et al. (30). […] The intensity of signals was analyzed using an image program (NIH Image 1.62). We quantified the Western blots as follows. […]
We next assessed the effects of RNAi-mediated silencing of APBA1 on processing of APP-C99. […]

The test system of data set [4] is Aβ40. The data set can be described thus: Sandwich ELISA of secreted Aβ in conditioned media of H4-APP-C99 cells. Particulars: data not shown. How it is done:
as §1, with “G418. […]” for “G418.”
as §3
We next measured Aβ levels in the conditioned media 48 hours after treatment with either control siRNA or APBA1 siRNA in the H4-APP-C99 cells. […]

Consider `C[C@H](NC(=O)Cc1cc(F)cc(F)c1)C(=O)N[C@H](C(=O)OC(C)(C)C)c1ccccc1` [DAPT], for which the “protein levels of APP-FL” value in data set [1] (APBA1 experiment (FIG. 1A), vs control siRNA) is reported as “no significant differences”; in data set [1] (APBA2 experiment (FIG. 2A), vs control siRNA), “no significant difference”. Besides, the “increase in the ratio of APP-C99 to APP-FL” value in data set [1] (APBA2 experiment, FIG. 2C, vs control treatment) was 270%; in data set [1] (FIG. 1C, vs control siRNA, normalized to β-actin), 310%. For the same compound, the “increase in the ratio of APP-C83 to APP-FL” value was determined as 245% in data set [1] (APBA2 experiment, FIG. 2D, vs control treatment) and 250% in data set [1] (FIG. 1D, vs control siRNA, normalized to β-actin). The “Aβ levels (Aβ40) in conditioned media” value in the data set with Aβ40 [2] (FIG. 1E, 48 hours after treatment, control siRNA treatment 116 pg/ml) came to 70 pg/mL. Also, the “Aβ production (Aβ40) in conditioned media” value in the data set on Aβ40 [2] (FIG. 2E, 48 hours following treatment, control siRNA 109 pg/ml) came out at 48 pg/mL.
As for “control siRNA: Scrambled siRNA (5′-AAATGTGTGTACGTCTCCTCC-3; SEQ ID NO:4) used as the control siRNA (listed as DNA, chemistry not given here)”, the “effect on APP processing as compared to saline treatment” value in data set [1] (data not shown) and in data set [3] was “did not affect APP processing or alter Aβ levels” in each case. In addition, the “effect on Aβ levels as compared to saline treatment” value in the data set on Aβ40 [2] (data not shown) and with Aβ40 [4] was “did not affect APP processing or alter Aβ levels” each time.
